Test results taken from US20100260683A1, “THERMOLABILE LIPOSOME WITH CONTROLLED RELEASE TEMPERATURE” (MAX-PLANCK-GESELLSCHAFT ZUR FORDERUNG DER WISSENCHAFTEN E.V., priority 2001, published 2010).

Experiment: Main transition temperature (TM) of phosphatidylcholines
Assay type: physicochemical
Settings: acyl chains at positions 1 and 2 of glycero-3-phosphocholine or 1 and 3 of glycero-2-phosphocholine
Method: The abovementioned preferred composition of the liposome according to the invention can be made to measure for other temperature ranges by choice of components having the main transition temperature suitable in each case. In table 1, the main transition temperatures (TM) of phosphatidylcholines are indicated whose main transition temperature lies in the range from 0 to 80° C. The main transition temperatures are recognizable as from the table, depending on the chain length and the distribution over the positions 1 and 2 of glycero-3-phosphocholine or 1 and 3 of glycero-2-phosphocholine.

| Compound | TM (main transition temperature) |
| --- | --- |
| CCCCCCCCCCCCCCCCCCCC(=O)OC[C@H](COP(=O)([O-])OCC[N+](C)(C)C)OC(=O)CCCCCCCCCCCCCCCCCCC [1,2-diarachinoyl-] | 66 °C |
| CCCCCCCCCCCCCCCCCCCCCC(=O)OC[C@H](COP(=O)([O-])OCC[N+](C)(C)C)OC(=O)CCCCCCCCCCCCCCCCCCCCC [1,2-dibehenoyl-] | 75 °C |
| CCCCCCCCCCCCCCCCCCCCCCCC(=O)OC[C@H](COP(=O)([O-])OCC[N+](C)(C)C)OC(=O)CCCCCCCCCCCCCCCCCCCCCCC [1,2-dilignoceroyl-] | 80 °C |
| CCCCCCCCCCCCCC(=O)OC[C@H](COP(=O)([O-])OCC[N+](C)(C)C)OC(=O)CCCCCCCCCCCCC [1,2-dimyristoyl-] | 23 °C |
| CCCCCCCCCCCCCCCC(=O)OCC(COP(=O)([O-])OCC[N+](C)(C)C)OC(=O)CCCCCCCCCCCCCCC (stereo not drawn) [1,2-dipalmitoyl-, 1,2-di-palmitoylglycero-3-phosphocholine] | 41 °C |
| CCCCCCCCCCCCCCCCCC(=O)OCC(COP(=O)([O-])OCC[N+](C)(C)C)OC(=O)CCCCCCCCCCCCCCCCC (stereo not drawn) [1,2-distearoyl-, 1,2-distearoylglycero-3-phospho-choline] | 56 °C |
| CCCCCCCCCCCCCC(=O)OCC(COC(=O)CCCCCCCCCCCCC)OP(=O)([O-])OCC[N+](C)(C)C [1,3-dimyristoyl-] | 19 °C |
| CCCCCCCCCCCCCCCC(=O)OCC(COC(=O)CCCCCCCCCCCCCCC)OP(=O)([O-])OCC[N+](C)(C)C [1,3-dipalmitoyl-] | 39 °C |
| CCCCCCCCCCCCCCCCCC(=O)OCC(COC(=O)CCCCCCCCCCCCCCCCC)OP(=O)([O-])OCC[N+](C)(C)C [1,3-distearoyl-] | 53 °C |
| CCCCCCCC/C=C\CCCCCCCC(=O)O[C@H](COC(=O)CCCCCCCCCCCCCCCCCCCCC)COP(=O)([O-])OCC[N+](C)(C)C [1-behenoyl-2-oleoyl-] | 14 °C |
| CCCCCCCCCCCCCCCC(=O)OC(COC(=O)CCCCCCCCCCCCC)COP(=O)([O-])OCC[N+](C)(C)C (stereo not drawn) [1-myristoyl-2-palmitoyl] | 37 °C |
| CCCCCCCCCCCCCCCCCC(=O)O[C@H](COC(=O)CCCCCCCCCCCCC)COP(=O)([O-])OCC[N+](C)(C)C [1-myristoyl-2-stearoyl-] | 42 °C |
| CCCCCCCCCCCCCCCC(=O)OC[C@H](COP(=O)([O-])OCC[N+](C)(C)C)OC(=O)CCCCCCCCCCC [1-palmitoyl-2-lauroyl-] | 11 °C |
| CCCCCCCCCCCCCCCC(=O)OC[C@H](COP(=O)([O-])OCC[N+](C)(C)C)OC(=O)CCCCCCCCCCCCC [1-palmitoyl-2-myristoyl-] | 27 °C |
| CCCCCCCC/C=C\CCCCCCCC(=O)O[C@H](COC(=O)CCCCCCCCCCCCCCC)COP(=O)([O-])OCC[N+](C)(C)C [1-palmitoyl-2-oleoyl-] | 5 °C |
| CCCCCCCCCCCCCCCCCC(=O)O[C@H](COC(=O)CCCCCCCCCCCCCCC)COP(=O)([O-])OCC[N+](C)(C)C [1-palmitoyl-2-stearoyl-] | 52 °C |
| CCCCCCCCCCCCCCCCCC(=O)OC[C@H](COP(=O)([O-])OCC[N+](C)(C)C)OC(=O)CCCCCCCCCCC [1-stearoyl-2-lauroyl-] | 17 °C |
| CCCCCCCCCCCCCCCCCC(=O)OC[C@H](COP(=O)([O-])OCC[N+](C)(C)C)OC(=O)CCCCCCCCCCCCC [1-stearoyl-2-myristoyl-] | 33 °C |
| CCCCCCCC/C=C\CCCCCCCC(=O)O[C@H](COC(=O)CCCCCCCCCCCCCCCCC)COP(=O)([O-])OCC[N+](C)(C)C [1-stearoyl-2-oleoyl-] | 7 °C |
| CCCCCCCCCCCCCCCCCC(=O)OC[C@H](COP(=O)([O-])OCC[N+](C)(C)C)OC(=O)CCCCCCCCCCCCCCC [1-stearoyl-2-palmitoyl-] | 48 °C |
| CCCCCCCCCCCCCCCCCC(=O)OCC(COC(=O)CCCCCCCCCCCCC)OP(=O)([O-])OCC[N+](C)(C)C (stereo not drawn) [1-stearoyl-3-myristoyl-] | 46 °C |
